ChEMBL document CHEMBL5728699, “Macrocyclic compounds for treatment of medical disorders” (2021)

Biological target: Complement factor D (Homo sapiens, UniProt P00746)
Test: Human Factor D Assay: Human Factor D (purified from human serum, Complement Technology, Inc.) at 80 nM final concentration is incubated with test compound at various concentrations for 5 min at room temperature in 50 mM Tris, 1M NaCl, pH 7.5. A synthetic substrate Z-L-Lys-SBzl and DTNB (Ellman's reagent) are added to final concentrations of 100 µM each. Absorbance at 405 nm (A405) is recorded at 30 second intervals for 30 minutes using a microplate spectrophotometer. IC50 values are calculated by nonlinear regression of Complement Factor D reaction rates as a function of test compound concentration.

Complement factor D, sequence (P00746 whole entry): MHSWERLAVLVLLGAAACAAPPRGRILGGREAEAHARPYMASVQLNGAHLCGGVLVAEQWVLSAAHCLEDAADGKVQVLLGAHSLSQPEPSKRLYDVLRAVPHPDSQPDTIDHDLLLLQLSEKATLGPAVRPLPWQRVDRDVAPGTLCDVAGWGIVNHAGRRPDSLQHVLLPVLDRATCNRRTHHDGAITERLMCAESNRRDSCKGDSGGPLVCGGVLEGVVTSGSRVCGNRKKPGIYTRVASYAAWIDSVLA

Row | SMILES | IC50
1 | CC(=O)c1nn2c3c(cc(-c4cnc(C)nc4)cc13)CC/C=C\CCCC(=O)NC[C@@]13C[C@@H](C(=O)Nc4nc(Br)ccc4C)N(C(=O)C2)[C@@H]1C3 | < 1000 nM
2 | CC(=O)c1nn(CC(=O)N2[C@H]3C[C@@]4(/C=C\CCCCN(C)C(=O)Cc5ccc(Br)nc5NC3=O)C[C@@H]24)c2ccc(-c3cnc(C)nc3)cc12 | < 1000 nM
3 | CC(=O)c1nn2c3c(cc(-c4cnc(C)nc4)cc13)CCCCCC/C=C\c1cn(nn1)C[C@@]13C[C@@H](C(=O)Nc4nc(Br)ccc4C)N(C(=O)C2)[C@@H]1C3 | < 1000 nM
4 | CC(=O)c1nn(CC(=O)N2[C@H]3C[C@]4(C[C@@H]24)CN2CC(CCCOCc4ccc(Br)nc4NC3=O)C2)c2c(C)cc(-c3cnc(C)nc3)cc12 | < 1000 nM
5 | CC(=O)c1nn2c3c(cc(-c4cnc(C)nc4)cc13)C/C=C\CCCC(=O)NC[C@@]13C[C@@H](C(=O)Nc4nc(Br)ccc4C)N(C(=O)C2)[C@@H]1C3 | < 1000 nM
6 | CC(=O)c1nn(CC(=O)N2[C@H]3C[C@]4(C[C@@H]24)CN(C)CC(O)C(O)COCc2ccc(Br)nc2NC3=O)c2cnc(-c3cnc(C)nc3)cc12 (stereo not given in full) | < 1000 nM
7 | CC(=O)c1nn(CC(=O)N2[C@H]3C[C@]4(C[C@@H]24)CN(C)CCCC/C=C\Cc2ccc(Br)nc2NC3=O)c2c(CF)cc(-c3cnc(C)nc3)cc12 | < 1000 nM
8 | CC(=O)N[C@H]1C/C=C\COCc2ccc(Br)nc2NC(=O)[C@@H]2C[C@@]3(CNC1=O)C[C@H]3N2C(=O)Cn1nc(C(C)=O)c2cc(-c3cnc(C)nc3)ccc21 | < 1000 nM
9 | CC(=O)c1nn2c3c(cc(-c4cnc(C)nc4)cc13)C/C=C\CCCC(=O)NC[C@@]13C[C@@H](C(=O)Nc4nc(C(F)(F)F)ccc4C)N(C(=O)C2)[C@@H]1C3 | < 1000 nM
10 | C=C1COCc2ccc(Br)nc2NC(=O)[C@@H]2C[C@]3(C[C@H]3N2C(=O)Cn2nc(C(C)=O)c3cc(-c4cnc(C)nc4)ncc32)Cn2cc1cn2 | < 1000 nM
